{"source": "paper PMC8752738", "about": "“A propolis-derived small molecule ameliorates metabolic syndrome in obese mice by targeting the CREB/CRTC2 transcriptional complex” (Nature Communications, 2022)", "key": {"[1]": {"target": "T1, CREB-CRTC2 interaction (Homo sapiens, UniProt P16220)", "T1 construct": "expressed in transfected cells; host or cells: HEK293T", "T1 sequence (P16220 whole entry, the tested form may be a part)": "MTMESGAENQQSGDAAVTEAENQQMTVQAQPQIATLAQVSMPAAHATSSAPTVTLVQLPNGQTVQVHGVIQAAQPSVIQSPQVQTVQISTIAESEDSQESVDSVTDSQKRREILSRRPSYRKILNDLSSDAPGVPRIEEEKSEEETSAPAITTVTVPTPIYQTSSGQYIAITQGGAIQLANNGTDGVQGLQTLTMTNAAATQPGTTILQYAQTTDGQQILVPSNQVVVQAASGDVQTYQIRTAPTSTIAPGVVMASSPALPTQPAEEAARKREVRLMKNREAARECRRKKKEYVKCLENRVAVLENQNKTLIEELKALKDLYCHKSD", "test": "CREB–CRTC2 mammalian two-hybrid assay (GAL4-Luc reporter)", "format": "cell-based"}, "[2]": {"target": "T2, HIS-CREB protein (Homo sapiens, UniProt P16220)", "T2 construct": "made in house", "T2 sequence (P16220 whole entry)": "as the sequence (P16220 whole entry, the tested form may be a part) above", "test": "Isothermal titration calorimetry", "format": "binding"}}}
{"smiles": "CCOC(=O)/C=C/c1ccc(O)cc1", "note": "[P4, (E)-p-hydroxycinnamic acid ethyl ester]", "values": [{"measurement": "reporter activity of CREB–CRTC2 two-hybrid assay", "setting": "[1]", "value": "nor decreased CREB/CRTC2 interaction"}, {"measurement": "direct binding with HIS-CREB proteins (ITC)", "setting": "[2]", "value": "neither directly bound with HIS-CREB proteins"}]}
